Laboratory results: patent US4338331A, “Isoindoline derivative and a therapeutic composition thereof” (priority 1979, dated 1982)
“And” between values parts separate entries of the source, which are not always exact repeats. Equal values may be shown once. “Also recorded” adds a separate entry of the source.

How the values were obtained:
[1] = Acute toxicity, oral, mouse; type: in vivo; settings: in vivo, mouse, read-out: DL50
Method: (§1) Acute toxicity was determined orally in the Wister rat and in the Swiss mouse of both sexes.
(§2) The animals were kept fasting for at least 12 hours before the tests but whith free access to water. The compound was suspended homogeneously in gum arabic mucilage and was administered, at the set doses, in a volume of 40 ml/kg by means of a gastro-oesophageal probe.
(§3) Each dose was tested on ten animals, of which five were male and five female. The weight of the rats varied from 300 to 350 g for the males and from 220 g to 250 g for the females. The weight of the mice, of both sexes, varied from 28 g to 35 g.
(§4) The observation lasted ten days.

Swiss mouse = test: Acute toxicity, oral, mouse; type: in vivo
Method: as §1, §2, §3, §4

[2] = Chronic (subacute) toxicity, 28 days oral, male rat; type: in vivo; settings: rat, in vivo, 4 weeks
Method: (§5) These tests were carried out on the male Wistar rat having a body weight which varied from 188 to 228 grams. The animals were randomly divided into groups of ten each, and treated in the following manner:
(§6) Group A--CONTROLS--10% gum arabic, 10 ml/kg/day by oral administration using a gastro-oesophageal probe for 28 consecutive days;
(§7) Group B--CM/1 20 mg/10 ml of 10% gum arabic per kg/day by oral administration using a gastro-oesophageal probe for 28 consecutive days;
(§8) Group C--CM/1 40 mg/10 ml of 10% gum arabic per kg/day by oral administration using a gastro-oesophageal probe for 28 consecutive days.
(§9) In all the groups tested, the body weight was measured daily at the moment of administration, and recorded at regular intervals.
(§10) The general conditions of food and water consumption were noted, and any mortality and the symptomatology were recorded.
(§11) Between the 25th and 27th day of treatment, all the tested groups were kept in suitable metabolic cages (single) in order to collect the urine spontaneously ejected, and thus determine its composition by reactive Bili-Labstix strips of Ames.
(§12) Between the 27th and 29th day of treatment, all the animals, which has fasted for 12 hours but with free access to water, were sacrificed by decapitation (a small animal decapitator of the Amer. Instr. Corp. was used). The following were determined from the blood collected from the trunk:
(§13) azotemia (Dell'Aira, in King E.--Microanalisi nella Biochimica medica. II Pensiero Sci. Ed., ROMA 1951);
(§14) glycemia (Price D. J.--Analyst 92; 198, 1967);
(§15) total bilirubinemia (Jendrassik L. and Grof. P.--Biochem. Z. 297;81, 1938);
(§16) total cholesterolemia (Huan T. C., Chen C. P., Wefler V. and Battey A.--Anal. Chem. 33; 1405, 1961);
(§17) total lipidemia (Zollner N. and Kirsch K.--Z. ges. Exp. Med. 135; 545, 1962)
(§18) SGOT and SGPT transaminase (Reitman S. and Frankel E.--Amer J. Clin. Path. 28;56, 1957);
(§19) total protidemia by the biuret colorimetric method, using lyphilised Hyland serum as standard;
(§20) sodaemia and potassaemia using the photometric method.
(§21) A macroscopic examination was also made of the main organs in order to note any alterations or tumor masses which could indicate neoplasia. Particular attention was given to the examination of the stomach and intestine of the rats treated with the highest dose, in order to determine the degree of local tolerability to repeated administration of CM/1 over 28 days by the gastro-enteric mucosa.
(§22) For this purpose, the stomach and intestine were subjected to macro and microscopic examination, these being sectioned along the greater curvature (stomach) and along the major axis (intestine), washed with tepid physiological solution extended and carefully observed with a magnifying lens, in order to note hyperemia zones with ulcerations or with other trophic alterations of the mucosa.

male Wistar rat [3] = test: as above; type: in vivo; settings: 20 and 40 mg/kg/day oral, 28 days
Method: as §5, §6, §7, §8, §9, §10, §11, §12, §13, §14, §15, §16, §17, §18, §19, §20, §21, §22

[4] = test system: rat with spontaneous hypertension (SHR); test: Hypotensive activity: arterial pressure of the rat with spontaneous hypertension (TABLE 4); type: in vivo, SHR male rats; settings: 1.2 mg/kg/day oral
Method: The effects of subacute oral treatment with CM/1 on the arterial pressure of the rat with spontaneous hypertension (SHR) were followed on 10 genetically hypertensive (SHR) male rats obtained from Charles River. They were divided at random into two groups of 5 each, and treated in the following manner:
GROUP A: CONTROLS--10% gum arabic, 5 ml/kg/day by oral administration using a gastro-oesophageal probe;
GROUP B: CM/1--1.2 mg/5 ml of gum arabic/kg/day by oral administration using a gastro-oesophageal probe.
The treatment was carried out for 28 consecutive days. The arterial pressure was recorded at regular intervals by the bloodless method, using the "BP Recorder 8005" apparatus of "W+W Electronic".
The measurement was made in the following manner: the tail of the animals was carefully depilated and then inserted into a sleeve of suitable diameter connected by a tube to a pump and a pressure gauge. The tail was then inserted into a circular transducer, which was connected to a pulse counter. When the apparatus was switched on, the pressure increased in the sleeve until the blood flow was arrested.
The pressures were now read from the pressure gauge.
Before beginning the experiments, the animals had been subjected for a week to this procedure in order to accustom them to handling.

male Wistar rat [5] = test: Chronic (subacute) toxicity, 28 days oral, male rat; type: in vivo; settings: 20 mg/kg and 40 mg/kg, printed '48 consecutive days'
[6] = individual rats, base of rats 1-5: 235, 215, 260, 265, 250

Which LD50 at 240 h [1] does the source give for `CC1c2ccccc2CN1NC(=O)c1ccc(Cl)c(S(N)(=O)=O)c1` (centres unmarked) [CM/1, 1-methyl-2-(3'-sulphamyl-4'-chlorobenzamido)-isoindoline] here?
Its LD50 at 240 h is over 2500 mg/kg.

What about the DL50 (Swiss mouse; Swiss mouse, both sexes, 10 days observation) of the same molecule?
Its DL50 is > 2,500 mg/kg.

What about the “deaths / toxic symptomatology” value (Swiss mouse; mouse, individual doses up to 2,500 mg/kg) of the same molecule?
Its value is “No deaths were observed either in the rat or in the mouse, nor was any particular toxic symptomatology found”.

What about the selectivity ratio at 672 h ([2]; daily doses up to 40 mg/kg oral, read-out: tolerated doses relative to the maximum daily human therapeutic dose) of the same molecule?
Its selectivity ratio at 672 h is 560.

What about the NOAEL at 672 h ([2]; oral, read-out: well tolerated daily dose (subacute toxicity)) of the same molecule?
The NOAEL at 672 h was at least 40 mg/kg/day.

What about the “alteration in the organs examined or in the gastro-enteric mucosa” value (male Wistar rat [3]) of the same molecule?
The value was “No alteration was noted”.

And the “behaviour and food consumption” value (male Wistar rat [3])?
The value was “Behaviour was normal, as was food consumption”.

And the “deaths during the 28 days of treatment” value (male Wistar rat [3])?
Its value is “no deaths were recorded”.

What about the sodaemia and potassaemia (male Wistar rat [3]) of the same molecule?
Its sodaemia and potassaemia is “slight reduction in the potassaemia and sodaemia”.

What about the symptomatology (male Wistar rat [3]) of the same molecule?
Its symptomatology is “No particular symptomatology was noted”.

And the urine composition (male Wistar rat [3]; collected days 25-27, versus controls)?
The urine composition was “in practice similar for the controls and treated animals”.

And the hematic biochemical constants (male Wistar rat [3]; except sodaemia and potassaemia)?
Its hematic biochemical constants is “all within the range of normal values for the rat of this stock”.

And the body weight (male Wistar rat [3]; versus controls)?
Its body weight is “in practice similar to the data for the controls”.

And the hemograms (male Wistar rat [3]; versus controls)?
The hemograms was “all normal, without any significant differences between the controls and treated animals”.

What about the water consumption (male Wistar rat [3]; versus controls) of the same molecule?
Its water consumption is “slightly greater than the controls”.

And the “Systolic arterial pressure measured bloodlessly, 7th day of treatment” value [4, 6]?
Its value is 210 mm Hg and 205 mm Hg and 245 mm Hg and 225 mm Hg.

What about the “Systolic arterial pressure measured bloodlessly, 14th day of treatment” value [4, 6] of the same molecule?
The value was 195 mm Hg and 215 mm Hg and 235 mm Hg and 200 mm Hg and 220 mm Hg.

And the “Systolic arterial pressure measured bloodlessly, 21st day of treatment” value [4, 6]?
Its value is 195 mm Hg and 210 mm Hg and 220 mm Hg and 180 mm Hg.

And the “Systolic arterial pressure measured bloodlessly, 28th day of treatment” value [4, 6]?
The value was 185 mm Hg and 210 mm Hg and 205 mm Hg.

What about the “Systolic arterial pressure measured bloodlessly, 7th day of treatment” value ([4]; mean, n = 5, base 245.0 ± 9.08) of the same molecule?
Its value is 219.0 ± 7.31 mm Hg.

And the “Systolic arterial pressure measured bloodlessly, 14th day of treatment” value ([4]; mean, n = 5, base 245.0 ± 9.08)?
The value was 213.0 ± 7.17 mm Hg.

What about the “Systolic arterial pressure measured bloodlessly, 21st day of treatment” value ([4]; mean, n = 5, base 245.0 ± 9.08) of the same molecule?
The value was 203.0 ± 7.00 mm Hg.

And the “Systolic arterial pressure measured bloodlessly, 28th day of treatment” value ([4]; mean, n = 5, base 245.0 ± 9.08)?
The value was 198.0 ± 5.38 mm Hg.

What about the “maximum reduction of the systolic arterial pressure” value ([4]; recording on the 28th day) of the same molecule?
The value was 20%.

And the anti-hypertensive activity ([4]; SHR, 28 days, 1.2 mg/kg/day)?
The anti-hypertensive activity was “significantly reduces the systolic arterial pressure; also recorded: shows anti-hypertensive activity”.

What about the damaging side-effects (male Wistar rat [5]) of the same molecule?
Its damaging side-effects is “no damagingside-effects”.
